Data as given in patent publication US20220251141A1, “IMMUNOMODULATORS” (Bristol-Myers Squibb Company, priority 2019, published 2022).
Bridge positions count the residues as written; N and C are the ends. Square brackets hold non-standard residues; d marks the D form. Peptide text beside a SMILES is read from it. * marks the point of attachment. Trp(1-CH2COOH) = N[C@@H](Cc1cn(CC(=O)O)c2ccccc12)C(=O)O; Trp(1-Me) = Cn1cc(C[C@H](N)C(=O)O)c2ccccc21; Phe(4-F) = N[C@@H](Cc1ccc(F)cc1)C(=O)O; Hyp = O=C(O)[C@@H]1C[C@@H](O)CN1; NMeNle = CCCC[C@H](NC)C(=O)O; Pen = CC(C)(S)[C@H](N)C(=O)O; Pip = O=C(O)[C@@H]1CCCCN1; Dab = NCC[C@H](N)C(=O)O; Dap = NC[C@H](N)C(=O)O; Piv = CC(C)(C)C(=O)*

Target: T1, PD-1/PD-L1 (Homo sapiens, UniProt Q9NZQ7)
T1 construct: TVMV protease site linker (C); made in house; host or cells: HEK293T cells
Experiment: PD-1/PD-L1 Homogenous Time-Resolved Fluorescence (HTRF) binding assay
Conditions: PD-L1-His 10 nM final, PD-1-Ig 20 nM final; inhibitors pre-incubated with PD-L1-His for 15 m
In short: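 Compounds pre-incubated 15 min with human PD-L1(18-239)-His (10 nM final), then PD-1(25-167)-Ig (20 nM final) added for 15 min, in dPBS with 0.1% BSA and 0.05% Tween-20. Eu-cryptate anti-Ig (1 nM) and APC anti-His (20 nM) added, 30 min equilibration, 665/620 nm ratio read; IC50 reported.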

Q: For `CCCC[C@H]1C(=O)N(C)[C@@H](CCCC)C(=O)N[C@@H](CCC(=O)O)C(=O)N[C@H](C(N)=O)CSCC(=O)N[C@@H](Cc2ccc(F)cc2)C(=O)N2CCCC[C@H]2C(=O)N[C@@H](CC(=O)O)C(=O)N2CCC[C@H]2C(=O)N[C@@H](CNC(=O)C(C)(C)C)C(=O)N[C@@H](CC(C)C)C(=O)N2C[C@H](O)C[C@H]2C(=O)N[C@@H](Cc2c[nH]c3ccccc23)C(=O)N[C@@H](CCNC(=O)C(C)(C)C)C(=O)N[C@@H](Cc2cn(CC(=O)O)c3ccccc23)C(=O)N1C` [Example 20070] ({CH2CO}-[Phe(4-F)][Pip]DP[Dap](Piv)L[Hyp]W[Dab](Piv)[Trp(1-CH2COOH)][NMeNle][NMeNle]EC-NH2; thioether N-14), which IC50 is on record?
A: 10.5 nM

Q: For `CCCC[C@H]1C(=O)N(C)[C@@H](CCCC)C(=O)N[C@@H](C(C)C)C(=O)N[C@H](C(N)=O)CSCC(=O)N[C@@H](Cc2ccc(F)cc2)C(=O)N2CCCC[C@H]2C(=O)N[C@@H](CC(=O)O)C(=O)N2CCC[C@H]2C(=O)N[C@@H](CNC(=O)C(C)(C)C)C(=O)N[C@@H](CCCCN)C(=O)N2C[C@H](O)C[C@H]2C(=O)N[C@@H](Cc2c[nH]c3ccccc23)C(=O)N[C@@H](CCNC(=O)C(C)(C)C)C(=O)N[C@@H](Cc2cn(CC(=O)O)c3ccccc23)C(=O)N1C` [Example 20080] ({CH2CO}-[Phe(4-F)][Pip]DP[Dap](Piv)K[Hyp]W[Dab](Piv)[Trp(1-CH2COOH)][NMeNle][NMeNle]VC-NH2; thioether N-14), which IC50 is on record?
A: 10.7 nM

Q: For `CCCC[C@H]1C(=O)N(C)[C@@H](CCCC)C(=O)N[C@@H](CC(C)C)C(=O)N[C@H](C(N)=O)CSCC(=O)N[C@@H](Cc2ccc(F)cc2)C(=O)N2CCCC[C@H]2C(=O)N[C@@H](CC(=O)O)C(=O)N2CCC[C@H]2C(=O)N[C@@H](CNC(=O)C(C)(C)C)C(=O)N[C@@H](CCCCN)C(=O)N2C[C@H](O)C[C@H]2C(=O)N[C@@H](Cc2c[nH]c3ccccc23)C(=O)N[C@@H](CCNC(=O)C(C)(C)C)C(=O)N[C@@H](Cc2cn(CC(=O)O)c3ccccc23)C(=O)N1C` [Example 20090] ({CH2CO}-[Phe(4-F)][Pip]DP[Dap](Piv)K[Hyp]W[Dab](Piv)[Trp(1-CH2COOH)][NMeNle][NMeNle]LC-NH2; thioether N-14), which IC50 is on record?
A: 11.1 nM

Q: How did the IC50 turn out when `CCCC[C@H]1C(=O)N(C)[C@@H](CCCC)C(=O)N[C@@H](CCC(=O)O)C(=O)N[C@H](C(N)=O)CSCC(=O)N[C@@H](Cc2ccc(F)cc2)C(=O)N2CCCC[C@H]2C(=O)N[C@@H](CC(N)=O)C(=O)N2CCC[C@H]2C(=O)N[C@@H](CNC(=O)C(C)(C)C)C(=O)N[C@@H](CC(C)C)C(=O)N2CCC[C@H]2C(=O)N[C@@H](Cc2c[nH]c3ccccc23)C(=O)N[C@@H](CCN)C(=O)N[C@@H](Cc2cn(CC(=O)O)c3ccccc23)C(=O)N1C` [Example 20110] ({CH2CO}-[Phe(4-F)][Pip]NP[Dap](Piv)LPW[Dab][Trp(1-CH2COOH)][NMeNle][NMeNle]EC-NH2; thioether N-14) was run?
A: 11.7 nM

Q: With `CCCC[C@H]1C(=O)N(C)[C@@H](CCCC)C(=O)N[C@@H](CC(C)C)C(=O)N[C@H](C(N)=O)C(C)(C)SCC(=O)N[C@@H](Cc2ccc(F)cc2)C(=O)N2CCCC[C@H]2C(=O)N[C@@H](CC(N)=O)C(=O)N2CCC[C@H]2C(=O)N[C@@H](CNC(=O)C(C)(C)C)C(=O)N[C@@H](CC(C)C)C(=O)N2C[C@H](O)C[C@H]2C(=O)N[C@@H](Cc2c[nH]c3ccccc23)C(=O)N[C@@H](CCN)C(=O)N[C@@H](Cc2cn(C)c3ccccc23)C(=O)N1C` [Example 20120] ({CH2CO}-[Phe(4-F)][Pip]NP[Dap](Piv)L[Hyp]W[Dab][Trp(1-Me)][NMeNle][NMeNle]L[Pen]-NH2; thioether N-14) as the molecule, how does the IC50 read?
A: 11.8 nM
